# Values of other authors as cited in US20080247966A1, “Compositions and Methods to Counteract Oral Malodour” (GIVAUDAN SA, priority 2005, published 2008).
# Test system: microorganisms such as yeasts
# Details: oral care compositions with C1-C4 lower alcohols, WO 99/51093
smiles,measurement,value
"CCCCCCCCO [octanol, octan-1-ol]",effect on microorganisms such as yeasts,no effect
